Measured values from ChEMBL document CHEMBL1201862, “PubChem BioAssay data set” (2004).
The source made the active and inactive calls.

What was measured:
[1] = tested on: Streptococcus sp. 'group A'; assay: Streptococcus pyogenes SK(-)GAS viability under kanamycin – luminescence, BacTiterGlo, confirmation, counter-screen for streptokinase expression inhibitor project, dose response (AID 1900); assay type: functional, organism-based
INS1 = assay: INS-1E survival protection against cytokine death – cell-based, luminescence, retest, dose response (AID 449756); assay type: functional; conditions: Rattus norvegicus;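 note: cell death triggered by IL-1 beta plus TNF-alpha plus IFN-gamma mixture; protective hits raise ATP signal compared with cytokine alone wells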
Streptococcus = assay: GAS UMAA2166 growth inhibition – luminescence, BacTiterGlo, counter-screen for streptokinase expression inhibitor project, dose response (AID 1915); assay type: functional, organism-based;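 note: potency for reduction of bacterial viability or growth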
Paired box protein Pax-8 = Paired box protein Pax-8 (Homo sapiens, UniProt Q06710); assay: PAX8 transcriptional activity inhibition in RMG-I – RMG-I cells, luciferase, cherry-pick, dose response (AID 687027); assay type: functional, cell-based;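 note: luciferase reporter driven by Pax8 target thyroperoxidase promoter measured by SteadyGlo luminescence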
[2] = fluconazole-exposed Candida albicans growth modulators – fluorescence, retest, confirmation (AID 2467); assay type: functional, cell-based
[3] = biological target: ATP-dependent molecular chaperone HSP82 (Candida albicans (strain WO-1) (Yeast), UniProt C4YTQ8); assay: steroid-induced GRE reporter decrease in yeast – S. cerevisiae, luminescence, Hsp90 inhibitor project, dose response (AID 2400); assay type: functional, cell-based;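 note: beta-galactosidase luminescence from glucocorticoid response element reporter as proxy for Hsp90 function; inhibitor potency where signal loss means Hsp90 inhibition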
[4] = NIH-3T3 fibroblast cytotoxicity, dose response, cytotoxicity control, cell-based, fluorescence, Alamar Blue, secondary assay (AID 2327); assay type: functional;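 note: NIH-3T3 mouse fibroblasts cultured with fluconazole at 8 µg/mL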
Nonstructural protein 1 = Nonstructural protein 1 (Influenza A virus, UniProt Q194T2); assay type: functional, Influenza A virus (A/California/07/2009(H1N1))
[5] = Luminescence-based counterscreen assay for KLF5 inhibitors: dose response cell-based high throughput screening assay to identify cytotoxic compounds using the IEC-6 intestinal epithelial cell line. [Related pubchem assays: 1700 (Primary screen.), 1834 (Confirmation screen.), 1858 (Summary AID.), 1905 (Counterscreen.)]; assay type: functional
[6] = biological target: T1, Serine/threonine-protein phosphatase (Candida dubliniensis (strain CD36 / CBS 7987 / NCPF 3949 / NRRLY-17841) (Yeast), UniProt B9W6M3); assay: blockers of CaCl2-induced CDRE-lacZ signaling – S. cerevisiae, luminescence, secondary, dose response (AID 2388); assay type: functional, cell-based;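 note: yeast reporter cells carrying a calcineurin-responsive lacZ construct stimulated with calcium chloride; luminescent beta-galactosidase reporter signal in whole cells rather than isolated phosphatase activity; potency for inhibition where a drop in reporter signal means calcineurin blockade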
T1 sequence (B9W6M3 whole entry): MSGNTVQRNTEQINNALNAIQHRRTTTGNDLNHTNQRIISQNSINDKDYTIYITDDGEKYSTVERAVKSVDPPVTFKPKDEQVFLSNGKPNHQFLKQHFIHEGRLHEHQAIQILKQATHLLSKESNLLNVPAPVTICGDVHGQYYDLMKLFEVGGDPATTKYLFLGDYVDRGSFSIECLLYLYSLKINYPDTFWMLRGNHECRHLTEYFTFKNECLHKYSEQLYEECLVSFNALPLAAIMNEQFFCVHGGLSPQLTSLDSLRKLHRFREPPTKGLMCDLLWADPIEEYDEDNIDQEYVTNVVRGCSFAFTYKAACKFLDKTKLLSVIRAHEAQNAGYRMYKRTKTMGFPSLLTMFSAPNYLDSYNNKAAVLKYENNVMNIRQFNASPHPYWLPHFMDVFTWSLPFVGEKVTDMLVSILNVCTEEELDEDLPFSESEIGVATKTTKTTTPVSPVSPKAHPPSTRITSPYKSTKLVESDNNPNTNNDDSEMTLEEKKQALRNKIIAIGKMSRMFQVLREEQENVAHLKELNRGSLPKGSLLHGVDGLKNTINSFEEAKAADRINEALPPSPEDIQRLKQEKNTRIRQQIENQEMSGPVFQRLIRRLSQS

[7] = biological target: T2, Alkaline phosphatase, tissue-nonspecific isozyme (Homo sapiens, UniProt P05186)
T2 sequence (P05186 whole entry): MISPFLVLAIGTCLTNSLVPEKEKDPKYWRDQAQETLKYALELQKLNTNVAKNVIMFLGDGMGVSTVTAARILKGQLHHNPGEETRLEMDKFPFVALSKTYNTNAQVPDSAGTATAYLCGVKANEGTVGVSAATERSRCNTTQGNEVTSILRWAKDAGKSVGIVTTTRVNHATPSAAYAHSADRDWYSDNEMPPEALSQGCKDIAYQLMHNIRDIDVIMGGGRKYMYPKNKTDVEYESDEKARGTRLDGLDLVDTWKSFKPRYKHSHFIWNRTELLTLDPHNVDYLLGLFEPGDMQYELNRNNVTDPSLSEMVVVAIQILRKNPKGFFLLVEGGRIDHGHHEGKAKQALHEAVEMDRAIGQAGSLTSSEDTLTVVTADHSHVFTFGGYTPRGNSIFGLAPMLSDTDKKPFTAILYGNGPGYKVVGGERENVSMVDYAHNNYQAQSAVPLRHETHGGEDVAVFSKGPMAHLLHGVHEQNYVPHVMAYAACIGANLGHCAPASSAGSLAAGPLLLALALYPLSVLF

Mucolipin-3 = biological target: T3, Mucolipin-3 (Homo sapiens, UniProt Q8TDD5); assay: Dose response cell-based high-throughput screening assay for agonists of the transient receptor potential channel ML3 (TRPML3). [Related pubchem assays: 1526, 1424, 1448 ]; assay type: functional
T3 sequence (Q8TDD5 whole entry): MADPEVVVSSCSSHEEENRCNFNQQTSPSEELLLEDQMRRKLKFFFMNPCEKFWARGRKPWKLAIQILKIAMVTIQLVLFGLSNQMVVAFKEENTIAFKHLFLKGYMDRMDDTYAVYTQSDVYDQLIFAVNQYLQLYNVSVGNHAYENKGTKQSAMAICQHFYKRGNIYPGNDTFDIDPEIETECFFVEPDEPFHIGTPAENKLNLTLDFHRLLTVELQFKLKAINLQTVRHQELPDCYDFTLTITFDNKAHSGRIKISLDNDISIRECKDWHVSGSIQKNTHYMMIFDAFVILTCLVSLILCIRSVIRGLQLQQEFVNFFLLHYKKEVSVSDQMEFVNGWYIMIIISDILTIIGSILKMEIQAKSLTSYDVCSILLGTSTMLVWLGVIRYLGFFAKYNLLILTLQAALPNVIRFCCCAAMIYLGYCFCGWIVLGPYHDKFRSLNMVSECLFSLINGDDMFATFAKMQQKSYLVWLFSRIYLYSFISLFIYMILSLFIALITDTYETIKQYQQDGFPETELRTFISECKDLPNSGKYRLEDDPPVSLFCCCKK

Ion channel NompC = Ion channel NompC (Danio rerio, UniProt Q7T1G6); assay: Fluorescence counterscreen assay for TRPML3 agonists: dose response cell-based high-throughput screening assay to identify agonists of the transient receptor potential channel N1 (TRPN1). [Related pubchem assays: 1526, 1424, 1448 ]; assay type: functional
Hexokinase HKDC1 = Hexokinase HKDC1 (Homo sapiens, UniProt Q2TB90); assay: inhibition of HKDC1 glucose phosphorylation – biochemical, W721R variant, dose response (AID 504729); assay type: functional
[8] = biological target: FAD-linked sulfhydryl oxidase ALR (Homo sapiens, UniProt P55789); assay: ALR-catalysed DTT oxidation blockers – biochemical, H2O2 detection, luminescence, cherry-pick, dose response (AID 493248)
[9] = alpha-synuclein stem-loop luciferase translation blockers – H4 neuroglioma cells, luminescence, confirmation (AID 1988); assay type: functional, cell-based
[10] = luciferase reporter signal reduction – luminescence, H4-C neuroglioblastoma cells, dose response (AID 2458); assay type: functional, cell-based;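 note: H4 neuroglioblastoma cells stably carrying a luciferase reporter gene fusion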
[11] = off-target signal loss in HeLa-CEM21 co-culture – HeLa F-luc CTL cells, cherry-picked, counter-screen for HIV-1 Env fusion inhibitor project, dose response (AID 652040); assay type: functional, cell-based;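 note: potency for signal decrease marking cytotoxic or nonspecific inhibition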
[12] = blockers of HIV-1 ZM109 envelope-driven cell-cell fusion – HeLa effector, CEM target cells, luciferase, cherry-pick, dose response (AID 652058); assay type: functional, cell-based;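 note: luciferase signal from HIV-1 Env mediated cell-cell fusion of effector and target cells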
[13] = luciferase reporter signal suppression in cells – H4 neuroglioma cells, luminescence, dose response (AID 1990); assay type: functional, cell-based
[14] = viability loss in HEK293 cells – cell-based, plate reader, cherry-picked samples, cytotoxicity control, dose response (AID 743446); assay type: functional
[15] = blockade of melanocortin 4 receptor signaling – cell-based, plate reader, cherry pick, counter-screen for LGR2 antagonist project, dose response (AID 743444); assay type: functional;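 note: transfected HEK 293 cells stimulated with alpha-MSH peptide; potency of inhibitors of the alpha-MSH evoked signal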
[16] = HIV-1 AD8 envelope cell-cell fusion blockers – cherry-pick, dose response (AID 652062); assay type: functional, cell-based;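 note: luciferase signal from cell-cell fusion driven by HIV-1 clade B AD8 Env; potency is for inhibitors of fusion seen as a drop in luminescence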
cells = assay type: functional, cell-based
[17] = blockers of bursicon-stimulated LGR2 cAMP reporter – cell-based, HEK293, CRE-luciferase reporter, cherry pick, set 2, dose response (AID 743343); assay type: functional;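 note: transfected cells were stimulated with diluted bursicon conditioned medium after compound addition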
[18] = biological target: T4, Heat shock factor protein 1 (Mus musculus, UniProt P38532); assay: decrease of HSF1-responsive luciferase luminescence – cell-based, NIH3T3, dose retest, confirmation (AID 2382); assay type: functional;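 note: NIH3T3 fibroblasts with HSF1-driven luciferase reporter stressed by proteasome inhibitor MG132; luminescence from HSF1-driven luciferase expression after 8 hours of MG132 stress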
T4 sequence (P38532 whole entry): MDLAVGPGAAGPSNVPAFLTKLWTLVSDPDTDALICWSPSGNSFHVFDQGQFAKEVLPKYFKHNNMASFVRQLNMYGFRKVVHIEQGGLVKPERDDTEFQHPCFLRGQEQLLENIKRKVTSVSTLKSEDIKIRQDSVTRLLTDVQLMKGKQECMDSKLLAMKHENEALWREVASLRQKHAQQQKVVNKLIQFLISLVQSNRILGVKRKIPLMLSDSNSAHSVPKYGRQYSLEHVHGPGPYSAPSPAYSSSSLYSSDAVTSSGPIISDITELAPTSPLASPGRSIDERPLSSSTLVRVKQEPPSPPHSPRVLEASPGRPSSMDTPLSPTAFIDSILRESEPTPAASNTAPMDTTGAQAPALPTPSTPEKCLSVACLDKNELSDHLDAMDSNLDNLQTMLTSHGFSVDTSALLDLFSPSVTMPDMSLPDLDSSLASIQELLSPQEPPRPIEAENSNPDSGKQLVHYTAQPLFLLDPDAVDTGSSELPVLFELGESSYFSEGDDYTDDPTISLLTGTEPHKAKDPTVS

[19] = A549 cell cytotoxicity, dose response, cytotoxicity control, plate reader, cherry-pick, antagonist series (AID 743412); assay type: functional, cell-based
[20] = blockers of HIV-1 envelope-mediated cell-cell fusion – cherry-pick, dose response (AID 652057); assay type: functional, cell-based
[21] = alpha-synuclein stem-loop translation blockers – luminescence, H4 neuroglioblastoma cells, dose confirmation, confirmation (AID 2454); assay type: functional, cell-based;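 note: H4 neuroglioblastoma cells carrying an alpha-synuclein 5'UTR luciferase reporter; potency for inhibition of the luciferase signal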
[22] = Luminescence Cell-Based Dose Response HTS to Identify Inhibitors of 5'UTR Stem-Loop Driven Prion Protein mRNA Translation in H4 Neuroglioblastoma Cells. [Related pubchem assays: 1827 (Project Summary), 1813 (Primary HTS)]; assay type: functional
[23] = biological target: DNA (cytosine-5)-methyltransferase 1 (Homo sapiens, UniProt P26358); assay: inhibition of DNA methylation by DNMT1 – biochemical, fluorescent molecular beacon, confirmation (AID 602386); assay type: functional
Cytochrome P450 3A4 = Cytochrome P450 3A4 (Homo sapiens, UniProt P08684); conditions: Potency;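 note: confirmatory qHTS run detecting inhibitors and substrates of CYP3A4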
Cytochrome P450 2C9 = Cytochrome P450 2C9 (Homo sapiens, UniProt P11712); conditions: Potency
[24] = biological target: T5, Polyadenylate-binding protein 1 (Homo sapiens, UniProt P11940); assay: MLLE domain peptide-binding blockers, IC50 – biochemical, fluorescence polarization, FITC-PAM2 peptide, dose response (AID 602259); assay type: functional; conditions: read-out: IC50_Mean
[25] = biological target: DNA dC->dU-editing enzyme APOBEC-3G (Homo sapiens, UniProt Q9HC16); assay: Dose Response confirmation of small molecule APOBEC3G DNA Deaminase Inhibitors via a fluorescence-based single-stranded DNA deaminase assay. [Related pubchem assays (depositor defined):AID493012, AID493028]; assay type: functional
[26] = biological target: T5, Polyadenylate-binding protein 1; assay: MLLE binding blockers, Cy5 peptide tracer – biochemical, fluorescence polarization, Cy5-PAM2 peptide, secondary, miRNA deadenylation inhibitor project, dose response (AID 602260); assay type: functional; conditions: read-out: IC50_Mean

Chain of Cytochrome P450 2C9 (P11712 whole entry, the tested form may be a part): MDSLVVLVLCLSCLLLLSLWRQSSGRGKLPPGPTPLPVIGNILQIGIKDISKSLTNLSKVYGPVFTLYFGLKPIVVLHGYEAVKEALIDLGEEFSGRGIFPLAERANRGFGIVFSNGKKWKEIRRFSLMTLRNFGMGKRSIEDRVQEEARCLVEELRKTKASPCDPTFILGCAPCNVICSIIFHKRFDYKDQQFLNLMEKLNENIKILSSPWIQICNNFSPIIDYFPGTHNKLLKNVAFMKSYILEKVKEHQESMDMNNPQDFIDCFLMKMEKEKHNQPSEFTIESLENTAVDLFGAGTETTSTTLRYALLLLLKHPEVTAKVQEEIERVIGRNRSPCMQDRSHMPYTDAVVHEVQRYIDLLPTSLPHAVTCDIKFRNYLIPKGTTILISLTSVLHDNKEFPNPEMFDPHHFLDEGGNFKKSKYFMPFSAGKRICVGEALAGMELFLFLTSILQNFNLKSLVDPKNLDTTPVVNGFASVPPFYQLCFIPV
Chain of Paired box protein Pax-8 (Q06710 whole entry): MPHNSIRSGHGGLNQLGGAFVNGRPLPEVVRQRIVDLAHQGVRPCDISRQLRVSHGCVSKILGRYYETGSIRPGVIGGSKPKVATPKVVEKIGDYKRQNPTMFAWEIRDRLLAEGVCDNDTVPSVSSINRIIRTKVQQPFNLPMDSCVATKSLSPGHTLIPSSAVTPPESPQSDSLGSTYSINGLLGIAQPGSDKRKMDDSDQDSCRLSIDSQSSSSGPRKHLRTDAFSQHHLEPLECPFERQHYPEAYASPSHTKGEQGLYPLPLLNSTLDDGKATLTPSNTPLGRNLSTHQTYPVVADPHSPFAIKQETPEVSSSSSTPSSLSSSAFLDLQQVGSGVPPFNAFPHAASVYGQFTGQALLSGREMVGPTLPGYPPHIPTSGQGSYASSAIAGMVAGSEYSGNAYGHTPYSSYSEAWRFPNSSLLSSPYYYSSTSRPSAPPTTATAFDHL
Chain of Hexokinase HKDC1 (Q2TB90 whole entry): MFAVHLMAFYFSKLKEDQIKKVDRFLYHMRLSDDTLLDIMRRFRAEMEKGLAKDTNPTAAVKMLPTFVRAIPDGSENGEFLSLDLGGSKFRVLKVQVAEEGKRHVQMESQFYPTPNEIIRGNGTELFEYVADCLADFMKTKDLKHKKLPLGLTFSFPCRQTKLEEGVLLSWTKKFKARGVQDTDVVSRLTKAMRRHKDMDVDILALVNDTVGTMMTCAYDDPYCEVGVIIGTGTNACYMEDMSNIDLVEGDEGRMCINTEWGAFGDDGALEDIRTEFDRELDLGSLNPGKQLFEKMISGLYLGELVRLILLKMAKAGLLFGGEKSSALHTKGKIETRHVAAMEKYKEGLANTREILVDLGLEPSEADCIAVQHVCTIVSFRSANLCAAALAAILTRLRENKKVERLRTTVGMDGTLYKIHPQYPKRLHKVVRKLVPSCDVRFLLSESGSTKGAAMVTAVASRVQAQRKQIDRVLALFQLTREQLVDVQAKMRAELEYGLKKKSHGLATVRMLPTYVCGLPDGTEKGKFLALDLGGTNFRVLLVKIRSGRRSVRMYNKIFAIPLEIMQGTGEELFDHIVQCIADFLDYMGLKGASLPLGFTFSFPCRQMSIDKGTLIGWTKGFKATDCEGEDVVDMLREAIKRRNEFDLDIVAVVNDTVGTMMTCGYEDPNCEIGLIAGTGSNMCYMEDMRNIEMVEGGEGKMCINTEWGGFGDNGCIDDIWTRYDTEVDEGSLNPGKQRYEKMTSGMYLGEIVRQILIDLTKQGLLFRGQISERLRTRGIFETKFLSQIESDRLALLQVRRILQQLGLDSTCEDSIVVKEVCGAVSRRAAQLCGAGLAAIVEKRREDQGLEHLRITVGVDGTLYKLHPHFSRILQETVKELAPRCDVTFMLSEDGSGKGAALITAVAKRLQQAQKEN
T5 sequence (P11940 whole entry, the tested form may be a part): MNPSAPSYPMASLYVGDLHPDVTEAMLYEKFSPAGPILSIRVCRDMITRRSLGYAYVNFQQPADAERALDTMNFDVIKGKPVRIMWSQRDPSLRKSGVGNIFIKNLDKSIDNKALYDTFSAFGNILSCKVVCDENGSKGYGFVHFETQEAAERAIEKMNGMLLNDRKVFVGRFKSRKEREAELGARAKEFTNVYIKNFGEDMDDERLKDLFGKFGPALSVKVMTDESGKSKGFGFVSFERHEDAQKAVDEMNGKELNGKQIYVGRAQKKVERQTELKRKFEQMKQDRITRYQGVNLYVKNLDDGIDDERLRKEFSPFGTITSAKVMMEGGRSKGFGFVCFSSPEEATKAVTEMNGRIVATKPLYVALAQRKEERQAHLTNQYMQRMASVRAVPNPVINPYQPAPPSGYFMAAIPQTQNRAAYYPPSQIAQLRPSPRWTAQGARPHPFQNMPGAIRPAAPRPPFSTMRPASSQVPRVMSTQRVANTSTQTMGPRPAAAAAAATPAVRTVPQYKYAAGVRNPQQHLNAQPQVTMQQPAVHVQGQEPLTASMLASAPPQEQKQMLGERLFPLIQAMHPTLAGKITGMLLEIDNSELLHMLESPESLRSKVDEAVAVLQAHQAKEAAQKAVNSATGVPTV
Chain of FAD-linked sulfhydryl oxidase ALR (P55789 whole entry): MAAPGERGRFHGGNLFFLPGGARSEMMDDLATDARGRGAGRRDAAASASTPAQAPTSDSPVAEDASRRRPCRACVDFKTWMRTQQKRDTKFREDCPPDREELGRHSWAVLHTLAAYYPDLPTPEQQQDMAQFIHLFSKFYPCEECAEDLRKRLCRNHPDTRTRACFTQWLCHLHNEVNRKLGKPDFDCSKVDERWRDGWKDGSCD
Chain of ATP-dependent molecular chaperone HSP82 (C4YTQ8 whole entry): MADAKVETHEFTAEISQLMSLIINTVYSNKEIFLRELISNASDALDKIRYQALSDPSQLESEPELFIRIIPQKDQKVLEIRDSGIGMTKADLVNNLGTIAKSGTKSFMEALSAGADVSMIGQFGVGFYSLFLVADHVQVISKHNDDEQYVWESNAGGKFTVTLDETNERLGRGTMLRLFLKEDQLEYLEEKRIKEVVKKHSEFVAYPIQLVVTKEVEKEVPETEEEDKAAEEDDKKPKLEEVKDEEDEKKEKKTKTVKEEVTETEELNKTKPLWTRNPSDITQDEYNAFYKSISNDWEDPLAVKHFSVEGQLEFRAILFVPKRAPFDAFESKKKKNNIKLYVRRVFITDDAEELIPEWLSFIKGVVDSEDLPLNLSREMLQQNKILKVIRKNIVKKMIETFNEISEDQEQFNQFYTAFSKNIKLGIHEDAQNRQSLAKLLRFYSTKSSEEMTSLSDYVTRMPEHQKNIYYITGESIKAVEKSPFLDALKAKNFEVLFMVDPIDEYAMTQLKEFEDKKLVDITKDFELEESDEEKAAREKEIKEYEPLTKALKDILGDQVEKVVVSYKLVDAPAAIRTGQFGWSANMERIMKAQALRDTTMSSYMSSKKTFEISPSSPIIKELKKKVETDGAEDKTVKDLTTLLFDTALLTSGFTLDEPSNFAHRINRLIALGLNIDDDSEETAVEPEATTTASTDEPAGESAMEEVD
Chain of DNA (cytosine-5)-methyltransferase 1 (P26358 whole entry): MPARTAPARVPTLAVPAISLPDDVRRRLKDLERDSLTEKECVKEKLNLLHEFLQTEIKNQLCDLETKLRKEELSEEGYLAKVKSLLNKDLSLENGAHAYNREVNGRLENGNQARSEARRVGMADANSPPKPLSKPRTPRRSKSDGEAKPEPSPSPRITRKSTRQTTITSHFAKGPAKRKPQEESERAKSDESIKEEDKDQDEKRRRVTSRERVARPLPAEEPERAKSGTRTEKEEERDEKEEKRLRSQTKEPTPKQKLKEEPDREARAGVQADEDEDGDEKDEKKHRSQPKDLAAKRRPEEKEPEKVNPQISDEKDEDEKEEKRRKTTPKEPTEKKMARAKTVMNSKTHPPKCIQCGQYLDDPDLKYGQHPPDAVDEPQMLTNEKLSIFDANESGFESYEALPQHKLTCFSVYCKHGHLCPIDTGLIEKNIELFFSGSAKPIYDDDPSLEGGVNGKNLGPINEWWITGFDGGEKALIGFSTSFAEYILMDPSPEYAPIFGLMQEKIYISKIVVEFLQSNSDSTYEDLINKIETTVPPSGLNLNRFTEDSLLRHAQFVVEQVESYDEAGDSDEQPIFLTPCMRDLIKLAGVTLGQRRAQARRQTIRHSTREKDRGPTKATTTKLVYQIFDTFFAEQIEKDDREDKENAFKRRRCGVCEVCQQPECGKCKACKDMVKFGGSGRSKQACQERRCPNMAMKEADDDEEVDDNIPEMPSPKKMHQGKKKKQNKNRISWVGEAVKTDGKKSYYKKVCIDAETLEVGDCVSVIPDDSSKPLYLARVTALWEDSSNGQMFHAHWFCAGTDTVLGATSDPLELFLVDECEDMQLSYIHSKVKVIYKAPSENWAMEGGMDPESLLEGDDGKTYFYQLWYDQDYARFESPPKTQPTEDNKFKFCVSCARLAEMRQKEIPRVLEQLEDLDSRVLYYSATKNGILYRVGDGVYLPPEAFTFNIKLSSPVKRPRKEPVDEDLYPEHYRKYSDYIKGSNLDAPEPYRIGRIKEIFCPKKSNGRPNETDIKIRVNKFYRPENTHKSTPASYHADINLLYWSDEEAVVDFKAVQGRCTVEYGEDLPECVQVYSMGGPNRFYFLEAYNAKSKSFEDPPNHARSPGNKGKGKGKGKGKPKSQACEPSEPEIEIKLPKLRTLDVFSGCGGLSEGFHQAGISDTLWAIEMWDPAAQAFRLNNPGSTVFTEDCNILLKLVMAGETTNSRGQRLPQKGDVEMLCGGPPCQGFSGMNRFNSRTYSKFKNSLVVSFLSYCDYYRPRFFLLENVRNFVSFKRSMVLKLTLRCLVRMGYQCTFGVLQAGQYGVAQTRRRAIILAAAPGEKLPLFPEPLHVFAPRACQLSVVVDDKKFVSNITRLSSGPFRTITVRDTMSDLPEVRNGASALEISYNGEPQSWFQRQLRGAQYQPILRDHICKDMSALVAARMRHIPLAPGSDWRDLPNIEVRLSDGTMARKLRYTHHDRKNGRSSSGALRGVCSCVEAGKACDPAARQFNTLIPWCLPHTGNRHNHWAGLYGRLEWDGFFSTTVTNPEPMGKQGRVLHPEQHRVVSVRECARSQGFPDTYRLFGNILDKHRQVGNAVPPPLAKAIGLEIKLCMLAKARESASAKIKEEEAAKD

CCN(CC)S(=O)(=O)c1cc(OC)ccc1N=Nc1ccc(O)c2ncccc12
EC50 [1]: 1.61 µM (active) | AC50 (INS1): 2.41 µM (active) | EC50 (Streptococcus): 8.84 µM (active) | AC50 (Paired box protein Pax-8): 1.27 µM (active) | EC50 [2]: 0.524 µM (active) | EC50 [3]: 13.5 µM (active) | EC50 [4]: 96.3 µM (active) | IC50 (Nonstructural protein 1): 11.7 µM (active) | IC50 [5]: 15.7 µM (not active) | EC50 [6]: > 180 µM (inactive)

Cc1ccc(OCC(=O)Nc2ccc3c(c2)OCCO3)cc1C
EC50 [7]: > 100 µM (not active)

Cc1ccc(S(=O)(=O)Nc2cc(C(F)(F)F)ccc2N2CCOCC2)c(C)c1
EC50 (Mucolipin-3): 2.48 µM (active) | EC50 (Ion channel NompC): > 29.9 µM (not active)

Cc1cccc(C)c1Nc1nnc(SCc2cn3cccc(C)c3n2)s1
IC50 (Hexokinase HKDC1): > 80 µM (inactive)

O=C(O)c1cccc(COc2ccc3c(c2)CCC3)c1
AC50 [8]: 1.37 µM (active) | EC50 [9]: < 0.1 µM (active) | EC50 [10]: 0.233 µM (active) | AC50 [11]: 1.68 µM (active) | AC50 [12]: 5.09 µM (active) | EC50 [13]: 0.212 µM (active) | AC50 [14]: > 52 µM (inactive) | AC50 (Paired box protein Pax-8): 3.79 µM (active) | AC50 [15]: 0.383 µM (active) | AC50 [16]: 1.47 µM (active) | EC50 (cells): 0.538 µM (active) | AC50 [17]: 0.326 µM (active) | EC50 [18]: 0.376 µM (inconclusive) | AC50 [19]: > 52 µM (inactive) | IC50 [5]: > 39.8 µM (not active) | AC50 [20]: 0.684 µM (active) | EC50 [21]: 0.197 µM (active) | EC50 [22]: < 0.1 µM (active)

Cc1ccc(N2C(=O)NC(=O)/C(=C\c3cc(C)n(-c4sc5c(c4C#N)CCCC5)c3C)C2=O)cc1
IC50 [23]: 11.1 µM (active) | IC50 (Hexokinase HKDC1): 14.1 µM (active)

CC1CCC2C(=O)N3C(CCC(C)C3c3ccccc3Br)C(=O)N2C1c1ccc(C#CCN(C)C)cc1 (stereo not given)
AC50 (Cytochrome P450 3A4): 3.16 µM (inconclusive) | AC50 (Cytochrome P450 2C9): 3.98 µM (inconclusive)

CC(C)[C@@H](CC(=O)N[C@@H]1CCCC[C@H]1C(=O)N[C@H](CC(=O)N[C@@H](CCC(=O)O)CC(=O)O)Cc1c[nH]c2ccccc12)NC(=O)C[C@H](CO)NC(=O)[C@@H]1CNCC[C@H]1N
AC50 (Cytochrome P450 2C9): 31.6 µM (inconclusive)

CCOC(=O)c1ccc(NC(=O)CC2Sc3ncnn3C2=O)cc1 (stereo not given)
IC50 [24]: > 66 µM (inactive) | IC50 [25]: 61.8 µM (active) | IC50 [26]: > 66 µM (inactive)
